Structures are written as SMILES.

In the first assay the target is H1047R PIK3CA enzyme (Homo sapiens, UniProt P42336, H1047R). Kind of assay: ADP-Glo Biochemical PIK3CA Kinase Assay.
Chain of H1047R PIK3CA enzyme (P42336 whole entry H1047R): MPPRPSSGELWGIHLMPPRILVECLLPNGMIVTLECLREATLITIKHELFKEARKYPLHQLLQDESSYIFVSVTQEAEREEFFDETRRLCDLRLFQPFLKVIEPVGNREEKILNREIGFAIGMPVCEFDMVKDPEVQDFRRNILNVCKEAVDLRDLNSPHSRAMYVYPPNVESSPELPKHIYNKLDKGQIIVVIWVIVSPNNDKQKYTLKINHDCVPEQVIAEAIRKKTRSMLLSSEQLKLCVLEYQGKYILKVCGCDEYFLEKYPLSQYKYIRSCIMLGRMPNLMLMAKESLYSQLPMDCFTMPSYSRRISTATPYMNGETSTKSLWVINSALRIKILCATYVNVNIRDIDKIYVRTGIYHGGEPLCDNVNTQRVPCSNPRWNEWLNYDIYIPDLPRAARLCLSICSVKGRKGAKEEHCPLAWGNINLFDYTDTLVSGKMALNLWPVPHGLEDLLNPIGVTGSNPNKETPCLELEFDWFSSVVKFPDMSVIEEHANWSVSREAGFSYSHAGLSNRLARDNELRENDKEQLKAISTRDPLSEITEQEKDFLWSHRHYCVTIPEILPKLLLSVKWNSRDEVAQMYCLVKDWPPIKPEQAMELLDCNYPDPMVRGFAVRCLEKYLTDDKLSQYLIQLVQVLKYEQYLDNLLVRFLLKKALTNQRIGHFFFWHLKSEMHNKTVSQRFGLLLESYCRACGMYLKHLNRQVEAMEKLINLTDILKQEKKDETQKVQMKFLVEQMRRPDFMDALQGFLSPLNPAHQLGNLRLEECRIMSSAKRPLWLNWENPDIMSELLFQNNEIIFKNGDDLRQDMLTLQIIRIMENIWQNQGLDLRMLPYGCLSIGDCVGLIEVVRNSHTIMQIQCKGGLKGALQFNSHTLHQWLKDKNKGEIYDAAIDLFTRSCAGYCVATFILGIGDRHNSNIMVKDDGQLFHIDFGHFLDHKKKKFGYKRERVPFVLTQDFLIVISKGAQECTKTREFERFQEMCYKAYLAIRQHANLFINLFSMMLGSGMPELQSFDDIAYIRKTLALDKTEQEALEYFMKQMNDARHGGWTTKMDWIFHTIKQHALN
Chain of H1047R PIK3CA enzyme (P27986 whole entry partner): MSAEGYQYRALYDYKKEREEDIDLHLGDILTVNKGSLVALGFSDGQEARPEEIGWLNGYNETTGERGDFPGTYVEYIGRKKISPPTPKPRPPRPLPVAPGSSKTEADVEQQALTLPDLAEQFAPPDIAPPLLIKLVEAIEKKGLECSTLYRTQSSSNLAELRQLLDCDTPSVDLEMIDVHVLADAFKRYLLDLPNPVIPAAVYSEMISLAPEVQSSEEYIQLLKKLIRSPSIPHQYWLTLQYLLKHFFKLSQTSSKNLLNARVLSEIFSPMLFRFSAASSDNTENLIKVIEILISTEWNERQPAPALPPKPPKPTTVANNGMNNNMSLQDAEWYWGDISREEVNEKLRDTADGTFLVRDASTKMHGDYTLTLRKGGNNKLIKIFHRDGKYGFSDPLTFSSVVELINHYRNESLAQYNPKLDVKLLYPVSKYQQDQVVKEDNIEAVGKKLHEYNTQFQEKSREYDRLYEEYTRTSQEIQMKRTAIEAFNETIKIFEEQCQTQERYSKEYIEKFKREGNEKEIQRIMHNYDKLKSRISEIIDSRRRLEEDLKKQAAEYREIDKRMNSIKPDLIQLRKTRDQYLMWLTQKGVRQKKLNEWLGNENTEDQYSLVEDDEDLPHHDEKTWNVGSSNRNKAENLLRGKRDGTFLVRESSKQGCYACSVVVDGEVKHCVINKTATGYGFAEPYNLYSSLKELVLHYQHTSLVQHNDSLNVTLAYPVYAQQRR
Conditions: not given
Background: ADP-Glo turns the ADP formed in a reaction into a luminescent signal.
The IC50 is the midpoint of a concentration-inhibition curve. Consider `N#Cc1cnn(Cc2cc(NC(=O)N3C[C@](O)(C(F)(F)F)c4cc(F)ccc43)c3c(c2)C(=O)N[C@@H]3c2cc(F)ccc2Cl)c1` (single isomer, unassigned) [Compound I-2669], for which the IC50 is at most 100 nM.
Same read-out and setting: the result for `O=C1N[C@H](c2cc(F)ccc2Cl)c2c(NC(=O)N3C[C@@](O)(C(F)(F)F)c4cc(F)ccc43)cc(N3CCOC3=O)cc21` (single isomer, unassigned) [Compound I-2673] reads at most 100 nM; that for `[2H][C@@]1(c2cc(F)ccc2Cl)NC(=O)c2cccc(NC(=O)N3C[C@@](O)(C(F)(F)F)c4cc(F)ccc43)c21` (single isomer, unassigned) [Compound I-2682], at most 100 nM.
Still for that read-out and setting: under `O=C1N[C@H](c2ccccc2Cl)c2c(NC(=O)N3C[C@@](O)(C(F)(F)F)c4cc(F)ccc43)cccc21` (single isomer, unassigned) [Compound I-2688] stands at most 100 nM; under `CN(C)c1cc(NC(=O)N2C[C@](O)(C(F)(F)F)c3cc(F)ccc32)c2c(n1)C(=O)N[C@H]2c1cc(F)ccc1Cl` (single isomer, unassigned) [Compound I-2690], at most 100 nM.
`NCc1cc(NC(=O)N2C[C@@](O)(C(F)F)c3cc(F)ccc32)c2c(c1)C(=O)N[C@@H]2c1cc(F)ccc1Cl` (single isomer, unassigned) [Compound I-2694] returned an IC50 of at most 100 nM.
Take `O=C1N[C@H](c2cc(F)ccc2Cl)c2c(NC(=O)N3C[C@@](O)(C(F)(F)F)c4cc(F)ccc43)ccnc21` (single isomer, unassigned) [Compound I-2698]: the IC50 was at most 100 nM.
The same measure, in the same setting: under `O=C1N[C@H](c2cc(F)ccc2Cl)c2c(NC(=O)N3C[C@@](O)(C(F)(F)F)c4cc(F)ccc43)cc(Cl)nc21` (single isomer, unassigned) [Compound I-2703] stands at most 100 nM; under `O=C1N[C@@H](c2cc(F)ccc2Cl)c2c(NC(=O)N3C[C@](O)(C(F)(F)F)c4cc(F)ccc43)cc(Cl)nc21` (single isomer, unassigned) [Compound I-2704], at most 100 nM.
The same measure, in the same setting: under `O=C(Nc1cc(-c2ccncc2F)cc2c1[C@@H](c1cc(F)ccc1Cl)NC2=O)c1cc(F)cc(C(F)(F)F)c1` (stereo in doubt) [Compound I-986] stands at most 100 nM; under `Cn1ccc(-c2cc(NC(=O)c3cc(F)cc(C(F)(F)F)c3)c3c(c2)C(=O)N[C@@H]3c2cc(F)ccc2Cl)cc1=O` (stereo in doubt) [Compound I-1002], at most 100 nM.
The same measure, in the same setting: the result for `Nc1ncc(-c2cc(NC(=O)c3cc(F)cc(C(F)(F)F)c3)c3c(c2)C(=O)N[C@@H]3c2cc(F)ccc2Cl)cn1` (stereo in doubt) [Compound I-1003] reads at most 100 nM.
Compound `COc1cccc(-c2cc(NC(=O)c3cc(F)cc(C(F)(F)F)c3)c3c(c2)C(=O)N[C@H]3c2cc(F)ccc2Cl)n1` (stereo in doubt) [Compound I-1006] came in with an IC50 of at most 100 nM.
On the same count and under the same terms, under `O=C(Nc1cc(-c2cccnc2)cc2c1[C@@H](c1cc(F)ccc1Cl)NC2=O)c1cc(F)cc(C(F)(F)F)c1` (stereo in doubt) [Compound I-1009] stands at most 100 nM; under `Cc1cnccc1-c1cc(NC(=O)c2cc(F)cc(C(F)(F)F)c2)c2c(c1)C(=O)N[C@H]2c1cc(F)ccc1Cl` (stereo in doubt) [Compound I-1010], at most 100 nM.
The compound `O=C(Nc1cc(-c2ccc3ncnn3c2)cc2c1[C@H](c1cc(F)ccc1C(F)F)NC2=O)c1cc(F)cc(C(F)(F)F)c1` (stereo in doubt) [Compound I-1056] had an IC50 of at most 100 nM.
Same read-out and setting: under `O=C(Nc1cc(-c2ccc3ncnn3c2)cc2c1[C@H](c1cc(F)cc(F)c1Cl)NC2=O)c1cc(F)cc(C(F)(F)F)c1` (stereo in doubt) [Compound I-1062] stands at most 100 nM.
With `O=C(Nc1cc(-c2ccc3ncnn3c2)cc2c1[C@H](c1cc(F)ccc1Cl)NC2=O)c1cc(F)cc(OC(F)(F)F)c1` (stereo in doubt) [Compound I-1111], the IC50 is at most 100 nM.
Same read-out and setting: under `O=C1N[C@@H](c2cc(F)ccc2Cl)c2c(NC(=O)N3CCc4ccccc43)cc(-c3ccc4ncnn4c3)cc21` (stereo in doubt) [Compound I-1715] stands at most 100 nM.

System in another assay: not listed separately
The experiment in a line: cells. The conditions noted are these: Homo sapiens, MCF-10A, read-out: MCF10A IC50.
In the case of `N#Cc1cnn(Cc2cc(NC(=O)N3C[C@](O)(C(F)(F)F)c4cc(F)ccc43)c3c(c2)C(=O)N[C@@H]3c2cc(F)ccc2Cl)c1` (single isomer, unassigned) [Compound I-2669], the IC50 is under 1000 nM.
On to `O=C1N[C@H](c2cc(F)ccc2Cl)c2c(NC(=O)N3C[C@@](O)(C(F)(F)F)c4cc(F)ccc43)cc(N3CCOC3=O)cc21` (single isomer, unassigned) [Compound I-2673], for which the IC50 is under 1000 nM.
For `[2H][C@@]1(c2cc(F)ccc2Cl)NC(=O)c2cccc(NC(=O)N3C[C@@](O)(C(F)(F)F)c4cc(F)ccc43)c21` (single isomer, unassigned) [Compound I-2682], the IC50 was under 1000 nM.
Still for that read-out and setting: under `O=C1N[C@H](c2ccccc2Cl)c2c(NC(=O)N3C[C@@](O)(C(F)(F)F)c4cc(F)ccc43)cccc21` (single isomer, unassigned) [Compound I-2688] stands under 1000 nM; under `CN(C)c1cc(NC(=O)N2C[C@](O)(C(F)(F)F)c3cc(F)ccc32)c2c(n1)C(=O)N[C@H]2c1cc(F)ccc1Cl` (single isomer, unassigned) [Compound I-2690], under 1000 nM; under `NCc1cc(NC(=O)N2C[C@@](O)(C(F)F)c3cc(F)ccc32)c2c(c1)C(=O)N[C@@H]2c1cc(F)ccc1Cl` (single isomer, unassigned) [Compound I-2694], 1000 to 5000 nM.
On the same count and under the same terms, under `O=C1N[C@H](c2cc(F)ccc2Cl)c2c(NC(=O)N3C[C@@](O)(C(F)(F)F)c4cc(F)ccc43)ccnc21` (single isomer, unassigned) [Compound I-2698] stands 1000 to 5000 nM.
Same read-out and setting: the result for `O=C1N[C@H](c2cc(F)ccc2Cl)c2c(NC(=O)N3C[C@@](O)(C(F)(F)F)c4cc(F)ccc43)cc(Cl)nc21` (single isomer, unassigned) [Compound I-2703] reads under 1000 nM; that for `O=C1N[C@@H](c2cc(F)ccc2Cl)c2c(NC(=O)N3C[C@](O)(C(F)(F)F)c4cc(F)ccc43)cc(Cl)nc21` (single isomer, unassigned) [Compound I-2704], under 1000 nM.
Take `O=C(Nc1cc(-c2ccncc2F)cc2c1[C@@H](c1cc(F)ccc1Cl)NC2=O)c1cc(F)cc(C(F)(F)F)c1` (stereo in doubt) [Compound I-986]: the IC50 was under 1000 nM.
Still for that read-out and setting: the result for `Cn1ccc(-c2cc(NC(=O)c3cc(F)cc(C(F)(F)F)c3)c3c(c2)C(=O)N[C@@H]3c2cc(F)ccc2Cl)cc1=O` (stereo in doubt) [Compound I-1002] reads under 1000 nM; that for `Nc1ncc(-c2cc(NC(=O)c3cc(F)cc(C(F)(F)F)c3)c3c(c2)C(=O)N[C@@H]3c2cc(F)ccc2Cl)cn1` (stereo in doubt) [Compound I-1003], under 1000 nM; that for `COc1cccc(-c2cc(NC(=O)c3cc(F)cc(C(F)(F)F)c3)c3c(c2)C(=O)N[C@H]3c2cc(F)ccc2Cl)n1` (stereo in doubt) [Compound I-1006], under 1000 nM.
On the same count and under the same terms, the result for `O=C(Nc1cc(-c2cccnc2)cc2c1[C@@H](c1cc(F)ccc1Cl)NC2=O)c1cc(F)cc(C(F)(F)F)c1` (stereo in doubt) [Compound I-1009] reads under 1000 nM.
The same measure, in the same setting: under `Cc1cnccc1-c1cc(NC(=O)c2cc(F)cc(C(F)(F)F)c2)c2c(c1)C(=O)N[C@H]2c1cc(F)ccc1Cl` (stereo in doubt) [Compound I-1010] stands under 1000 nM.
In the case of `O=C(Nc1cc(-c2ccc3ncnn3c2)cc2c1[C@H](c1cc(F)ccc1C(F)F)NC2=O)c1cc(F)cc(C(F)(F)F)c1` (stereo in doubt) [Compound I-1056], the 50% inhibitory concentration (IC50) was under 1000 nM.
On the same count and under the same terms, the result for `O=C(Nc1cc(-c2ccc3ncnn3c2)cc2c1[C@H](c1cc(F)cc(F)c1Cl)NC2=O)c1cc(F)cc(C(F)(F)F)c1` (stereo in doubt) [Compound I-1062] reads under 1000 nM; that for `O=C(Nc1cc(-c2ccc3ncnn3c2)cc2c1[C@H](c1cc(F)ccc1Cl)NC2=O)c1cc(F)cc(OC(F)(F)F)c1` (stereo in doubt) [Compound I-1111], under 1000 nM; that for `O=C1N[C@@H](c2cc(F)ccc2Cl)c2c(NC(=O)N3CCc4ccccc43)cc(-c3ccc4ncnn4c3)cc21` (stereo in doubt) [Compound I-1715], under 1000 nM.
